How the values were obtained:
Type in all cases: in vivo
soybean [1] = test: Test Example 4: effect on crop by soil treatment (symbol d); conditions: for Effect on crop grade, d: soybean: application herbicide amount 320 g/ha
In short: (§1)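 Plants are raised in a greenhouse (25° C. to 30° C.) from spot-sown seed, which sits under about 1.5 cm of sterilized diluvial soil in a box shared with weed species.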

Setaria viridis [2] = test: Test Example 5: herbicidal effect by foliage application, plastic box (symbol G); conditions: 320 g/ha, 3 weeks after application
In short: (§2)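 Herbicide, formulated as an emulsion and diluted in water, is sprayed onto the aerial parts of 14-day seedlings. These were grown at 25° C. to 30° C. in sterilized diluvial soil; effects are graded after 3 weeks.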

corn = test: Test Example 4: effect on crop by soil treatment (symbol c); conditions: for Effect on crop grade, c: corn: application herbicide amount 320 g/ha
In short: as §1

[3] = test system: Echinochloa oryzacola Vasing.; test: Test Example 1: herbicidal activity, application before weed generation in submerged conditions (symbol A); conditions: application herbicide amount 320 g/ha
In short: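 Weed control was rated three weeks after treatment on a 0–5 scale, from 5% or lower up to 90% or more. Pre-emergence water-surface application of diluted emulsion at a predetermined rate was made on the day of sowing, in flooded (4 cm water) pots containing rice seedlings, kept at 25–30 °C under glass.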

Setaria viridis [4] = test: Test Example 4: herbicidal effect by soil treatment (symbol G); conditions: for Herbicidal effect grade, G: Setaria viridis: application herbicide amount 320 g/ha
In short: (§3)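 Seeds were sown in sterilized diluvial soil, covered with about 1.5 cm of soil, and the soil surface was sprayed with a water-diluted emulsion of the compound at a predetermined rate. Plants grew in a greenhouse at 25° C. to 30° C.; effects were scored visually 3 weeks after application.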

Cyperus difformis = test: Test Example 3: herbicidal effect by foliage application, Wagner pot (symbol E); conditions: application herbicide amount 320 g/ha; for E herbicidal effect grade: Table 24
In short: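 Post-emergence, paddy-type test: seedlings 14 d old in shallow-flooded (0.1–0.5 cm) alluvial soil, 25–30 °C greenhouse. Emulsion diluted to target rate, sprayed on leaves. Read-out: visual effect on each species at 3 weeks, per set criteria.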

Alopecurus myosuroides [5] = test: Test Example 4: herbicidal effect by soil treatment (symbol J); conditions: for Herbicidal effect grade, J: Alopecurus myosuroides: application herbicide amount 320 g/ha
In short: as §3

Veronica persica [6] = test: Test Example 4: herbicidal effect by soil treatment (symbol R); conditions: for Herbicidal effect grade, R: Veronica persica: application herbicide amount 320 g/ha
In short: as §3

Lolium multiflorum Lam. [7] = test: Test Example 4: herbicidal effect by soil treatment (symbol K); conditions: for Herbicidal effect grade, K: Lolium multiflorum Lam.: application herbicide amount 320 g/ha
In short: as §3

rice = test: Test Example 4: effect on crop by soil treatment (symbol b); conditions: for Effect on crop grade, b: directly sowed rice plant: application herbicide amount 320 g/ha
In short: as §1

wheat = test: Test Example 4: effect on crop by soil treatment (symbol e); conditions: for Effect on crop grade, e: wheat: application herbicide amount 320 g/ha
In short: as §1

Amaranthus retroflexus = test: Test Example 5: herbicidal effect by foliage application, plastic box (symbol N); conditions: 320 g/ha, 3 weeks after application
In short: as §2

Alopecurus myosuroides [8] = test: Test Example 5: herbicidal effect by foliage application, plastic box (symbol J); conditions: 320 g/ha, 3 weeks after application
In short: as §2

Lolium multiflorum Lam. [9] = test: Test Example 5: herbicidal effect by foliage application, plastic box (symbol K); conditions: 320 g/ha, 3 weeks after application
In short: as §2

Avena fatua = test: Test Example 5: herbicidal effect by foliage application, plastic box (symbol I); conditions: 320 g/ha, 3 weeks after application
In short: as §2

soybean [10] = test: Test Example 5: effect on crop by foliage application, plastic box (symbol d); conditions: 320 g/ha, 3 weeks after application
In short: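 Box culture: sterile diluvial soil, seeds spot-sown, ~1.5 cm cover, raised under glass at 25–30° C.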

Veronica persica [11] = test: Test Example 5: herbicidal effect by foliage application, plastic box (symbol R); conditions: 320 g/ha, 3 weeks after application
In short: as §2

Apera spica-venti = test: Test Example 4: herbicidal effect by soil treatment (symbol L); conditions: for Herbicidal effect grade, L: Apera spica-venti: application herbicide amount 320 g/ha
In short: as §3

SMILES: CON=C(C)CC1CC(OC(=O)c2nsc(Cl)c2Cl)=C(c2c(C)cc(C)cc2C)C1=O (stereo not drawn) [1-099]
- d: soybean, effect grade on crop (soybean [1]; 320 g/ha): 3 (Herbicidal ratio of 40% or higher and lower than 70%)
- G: Setaria viridis, herbicidal effect (criteria 0-5) (Setaria viridis [2]): 5 (Herbicidal ratio of 90% or more (almost completely withered))
- c: corn, effect grade on crop (corn; 320 g/ha): 5 (Herbicidal ratio of 90% or more (almost completely withered))
- Herbicidal effect grade, A: Echinochloa oryzacola Vasing. [3]: 5 (Herbicidal ratio of 90% or more (almost completely withered))
- G: Setaria viridis, herbicidal effect grade (Setaria viridis [4]; 320 g/ha): 5 (Herbicidal ratio of 90% or more (almost completely withered))
- herbicidal effect on E, grade 0-5 (Cyperus difformis): 5 (Herbicidal ratio of 90% or more (almost completely withered))
- J: Alopecurus myosuroides, herbicidal effect grade (Alopecurus myosuroides [5]; 320 g/ha): 5 (Herbicidal ratio of 90% or more (almost completely withered))
- R: Veronica persica, herbicidal effect grade (Veronica persica [6]; 320 g/ha): 0 (Herbicidal ratio of 5% or lower (almost no effect))
- K: Lolium multiflorum Lam., herbicidal effect grade (Lolium multiflorum Lam. [7]; 320 g/ha): 5 (Herbicidal ratio of 90% or more (almost completely withered))
- b: directly sowed rice plant, effect grade on crop (rice; 320 g/ha): 5 (Herbicidal ratio of 90% or more (almost completely withered))
- e: wheat, effect grade on crop (wheat; 320 g/ha): 3 (Herbicidal ratio of 40% or higher and lower than 70%)
- N: Amaranthus retroflexus, herbicidal effect (criteria 0-5) (Amaranthus retroflexus): 0 (Herbicidal ratio of 5% or lower (almost no effect))
- J: Alopecurus myosuroides, herbicidal effect (criteria 0-5) (Alopecurus myosuroides [8]): 5 (Herbicidal ratio of 90% or more (almost completely withered))
- K: Lolium multiflorum Lam., herbicidal effect (criteria 0-5) (Lolium multiflorum Lam. [9]): 5 (Herbicidal ratio of 90% or more (almost completely withered))
- I: Avena fatua, herbicidal effect (criteria 0-5) (Avena fatua): 5 (Herbicidal ratio of 90% or more (almost completely withered))
- d: soybean, effect on crop (criteria 0-5) (soybean [10]): 4 (Herbicidal ratio of 70% or higher and lower than 90%)
- R: Veronica persica, herbicidal effect (criteria 0-5) (Veronica persica [11]): 3 (Herbicidal ratio of 40% or higher and lower than 70%)
- L: Apera spica-venti, herbicidal effect grade (Apera spica-venti; 320 g/ha): 5 (Herbicidal ratio of 90% or more (almost completely withered))

SMILES: COCCON=C(C)CC1CC(O)=C(c2c(C)cc(Br)cc2C)C1=O (stereo not drawn) [9-017]
- Effect on crop grade, d: soybean (soybean [1]): 0 (Herbicidal ratio of 5% or lower (almost no effect))
- G: Setaria viridis, herbicidal effect grade (Setaria viridis [2]): 5 (Herbicidal ratio of 90% or more (almost completely withered))
- Effect on crop grade, c: corn (corn): 0 (Herbicidal ratio of 5% or lower (almost no effect))
- A (Echinochloa oryzacola Vasing.) herbicidal effect grade [3]: 4 (Herbicidal ratio of 70% or higher and lower than 90%)
- Herbicidal effect grade, G: Setaria viridis (Setaria viridis [4]): 0 (Herbicidal ratio of 5% or lower (almost no effect))
- E herbicidal effect grade (Cyperus difformis): 3 (Herbicidal ratio of 40% or higher and lower than 70%)
- Herbicidal effect grade, J: Alopecurus myosuroides (Alopecurus myosuroides [5]): 0 (Herbicidal ratio of 5% or lower (almost no effect))
- Herbicidal effect grade, R: Veronica persica (Veronica persica [6]): 0 (Herbicidal ratio of 5% or lower (almost no effect))
- Herbicidal effect grade, K: Lolium multiflorum Lam. (Lolium multiflorum Lam. [7]): 0 (Herbicidal ratio of 5% or lower (almost no effect))
- Effect on crop grade, b: directly sowed rice plant (rice): 1 (Herbicidal ratio of 5% or higher and lower than 20%)
- Effect on crop grade, e: wheat (wheat): 0 (Herbicidal ratio of 5% or lower (almost no effect))
- N: Amaranthus retroflexus, herbicidal effect grade (Amaranthus retroflexus): 0 (Herbicidal ratio of 5% or lower (almost no effect))
- J: Alopecurus myosuroides, herbicidal effect grade (Alopecurus myosuroides [8]): 3 (Herbicidal ratio of 40% or higher and lower than 70%)
- K: Lolium multiflorum Lam., herbicidal effect grade (Lolium multiflorum Lam. [9]): 5 (Herbicidal ratio of 90% or more (almost completely withered))
- I: Avena fatua, herbicidal effect grade (Avena fatua): 4 (Herbicidal ratio of 70% or higher and lower than 90%)
- d: soybean, effect on crop grade (soybean [10]): 0 (Herbicidal ratio of 5% or lower (almost no effect))
- R: Veronica persica, herbicidal effect grade (Veronica persica [11]): 0 (Herbicidal ratio of 5% or lower (almost no effect))
- Herbicidal effect grade, L: Apera spica-venti (Apera spica-venti): 0 (Herbicidal ratio of 5% or lower (almost no effect))

SMILES: COCCON=C(CC1CC(O)=C(c2c(C)cc(-n3cc(Cl)cn3)cc2C)C1=O)C1CC1 (stereo not drawn) [9-020]
- Effect on crop grade, d: soybean (soybean [1]): 0 (Herbicidal ratio of 5% or lower (almost no effect))
- G: Setaria viridis, herbicidal effect grade (Setaria viridis [2]): 5 (Herbicidal ratio of 90% or more (almost completely withered))
- Effect on crop grade, c: corn (corn): 0 (Herbicidal ratio of 5% or lower (almost no effect))
- A (Echinochloa oryzacola Vasing.) herbicidal effect grade [3]: 5 (Herbicidal ratio of 90% or more (almost completely withered))
- Herbicidal effect grade, G: Setaria viridis (Setaria viridis [4]): 5 (Herbicidal ratio of 90% or more (almost completely withered))
- E herbicidal effect grade (Cyperus difformis): 5 (Herbicidal ratio of 90% or more (almost completely withered))
- Herbicidal effect grade, J: Alopecurus myosuroides (Alopecurus myosuroides [5]): 3 (Herbicidal ratio of 40% or higher and lower than 70%)
- Herbicidal effect grade, R: Veronica persica (Veronica persica [6]): 0 (Herbicidal ratio of 5% or lower (almost no effect))
- Herbicidal effect grade, K: Lolium multiflorum Lam. (Lolium multiflorum Lam. [7]): 5 (Herbicidal ratio of 90% or more (almost completely withered))
- Effect on crop grade, b: directly sowed rice plant (rice): 3 (Herbicidal ratio of 40% or higher and lower than 70%)
- Effect on crop grade, e: wheat (wheat): 0 (Herbicidal ratio of 5% or lower (almost no effect))
- N: Amaranthus retroflexus, herbicidal effect grade (Amaranthus retroflexus): 5 (Herbicidal ratio of 90% or more (almost completely withered))
- J: Alopecurus myosuroides, herbicidal effect grade (Alopecurus myosuroides [8]): 5 (Herbicidal ratio of 90% or more (almost completely withered))
- K: Lolium multiflorum Lam., herbicidal effect grade (Lolium multiflorum Lam. [9]): 5 (Herbicidal ratio of 90% or more (almost completely withered))
- I: Avena fatua, herbicidal effect grade (Avena fatua): 5 (Herbicidal ratio of 90% or more (almost completely withered))
- d: soybean, effect on crop grade (soybean [10]): 1 (Herbicidal ratio of 5% or higher and lower than 20%)
- R: Veronica persica, herbicidal effect grade (Veronica persica [11]): 3 (Herbicidal ratio of 40% or higher and lower than 70%)
- Herbicidal effect grade, L: Apera spica-venti (Apera spica-venti): 4 (Herbicidal ratio of 70% or higher and lower than 90%)

SMILES: COCCON=C(CC1CC(O)=C(c2c(C)cc(-n3cc(Cl)cn3)cc2C)C1=O)C(C)C (stereo not drawn) [9-022]
- Effect on crop grade, d: soybean (soybean [1]): 0 (Herbicidal ratio of 5% or lower (almost no effect))
- G: Setaria viridis, herbicidal effect grade (Setaria viridis [2]): 5 (Herbicidal ratio of 90% or more (almost completely withered))
- Effect on crop grade, c: corn (corn): 1 (Herbicidal ratio of 5% or higher and lower than 20%)
- A (Echinochloa oryzacola Vasing.) herbicidal effect grade [3]: 5 (Herbicidal ratio of 90% or more (almost completely withered))
- Herbicidal effect grade, G: Setaria viridis (Setaria viridis [4]): 5 (Herbicidal ratio of 90% or more (almost completely withered))
- E herbicidal effect grade (Cyperus difformis): 5 (Herbicidal ratio of 90% or more (almost completely withered))
- Herbicidal effect grade, J: Alopecurus myosuroides (Alopecurus myosuroides [5]): 0 (Herbicidal ratio of 5% or lower (almost no effect))
- Herbicidal effect grade, R: Veronica persica (Veronica persica [6]): 0 (Herbicidal ratio of 5% or lower (almost no effect))
- Herbicidal effect grade, K: Lolium multiflorum Lam. (Lolium multiflorum Lam. [7]): 0 (Herbicidal ratio of 5% or lower (almost no effect))
- Effect on crop grade, b: directly sowed rice plant (rice): 4 (Herbicidal ratio of 70% or higher and lower than 90%)
- Effect on crop grade, e: wheat (wheat): 0 (Herbicidal ratio of 5% or lower (almost no effect))
- N: Amaranthus retroflexus, herbicidal effect grade (Amaranthus retroflexus): 0 (Herbicidal ratio of 5% or lower (almost no effect))
- J: Alopecurus myosuroides, herbicidal effect grade (Alopecurus myosuroides [8]): 2 (Herbicidal ratio of 20% or higher and lower than 40%)
- K: Lolium multiflorum Lam., herbicidal effect grade (Lolium multiflorum Lam. [9]): 2 (Herbicidal ratio of 20% or higher and lower than 40%)
- I: Avena fatua, herbicidal effect grade (Avena fatua): 0 (Herbicidal ratio of 5% or lower (almost no effect))
- d: soybean, effect on crop grade (soybean [10]): 0 (Herbicidal ratio of 5% or lower (almost no effect))
- R: Veronica persica, herbicidal effect grade (Veronica persica [11]): 0 (Herbicidal ratio of 5% or lower (almost no effect))
- Herbicidal effect grade, L: Apera spica-venti (Apera spica-venti): 0 (Herbicidal ratio of 5% or lower (almost no effect))
